Data taken from patent US20240082263A1, “PHARMACEUTICAL COMPOSITION FOR COMBINATION THERAPY COMPRISING MELATONIN AND PROSTAGLANDIN E2 FOR TREATING INTESTINAL EPITHELIAL INJURY AS AN ACTIVE INGREDIENT” (PUSAN NATIONAL UNIVERSITY INDUSTRY-UNIVERSITY COOPERATION …, priority 2022, published 2024).

What was measured:
Type in all cases: cell-based
[1] = system: mouse small intestine epithelial organoids; experiment: Flow cytometry of Ly6a-expressing cells in organoids; conditions: FIG. 2; for revival stem cell induction (ratio of Ly6a-expressing cells): flow cytometry, 2-iodomelatonin 200 μM, 8M-PDOT 200 μM, Butaprost 10 μM, Cay10598 10 μM, 5 days; for effect of receptor inhibitor on induction of revival stem cells: co-treated to PGE2 alone group and 8M-PDOT and PGE2 combined group, L-161,982 10 μM, PF-04418948 20 μM
Protocol: (§1) Mouse-derived small intestinal epithelial organoids were obtained as follows. First, small intestine tissue (duodenum about 10-15 cm) was isolated from 8-week-old C57BL/6N mice, and the intestinal lumen was washed with PBS using a 1 ml pipette tip, and the tissue was opened with the lumen facing up, and the remaining mucus, food, and intestinal villi were scraped off and removed. Thereafter, about 25 ml of PBS was filled in a 50 ml tube, and the intestinal tissue was cut to a length of about 2 to 4 mm and washed by shaking vigorously (repeated about 3 to 4 times). The washed intestinal tissue was suspended in 20 ml of Gentle cell dissociation reagent (100-0485, stemcell technologies) and reacted for 15 to 20 minutes while shaking at 20 rpm at room temperature. After the reaction was completed, crypts were separated from the intestinal tissue by vortexing at maximum speed for 5 seconds, and the tissue was removed and centrifuged at 290 g for 5 minutes. The collected cell pellet was resuspended in 10 ml of PBS, centrifuged at 290 g for 5 minutes, and then the cell pellet was suspended in DMEM/F12 medium to confirm the number of crypts. About 500 crypts per 24 well are mixed with 20 μl of cell culture medium (IntestiCult™ Organoid Growth Medium for Mouse, 05005, stemcell technologies) and 20 μl of Matrigel (354230, corning), planted in a dome shape in the center of the well, and placed in a cell culture incubator. After standing for 10 minutes and waiting for the gel to harden, 750 μl of IntestiCult was added and cultured.
In addition, changes in the percentage of cells expressing Ly6a, a specific marker for revival stem cells, were evaluated by flow cytometry. For flow cytometry, mouse small intestine epithelial organoids were treated with melatonin (500 μM) and PGE2 (100 nM) alone or in combination for 5 days, and the organoids were reacted with TrypLE™ Express Enzyme (Thermo Fisher) for 5 minutes at 37° C. to produce single cells. Thereafter, the Ly6a antibody (12-5981-82, Thermo Fisher) fluorescently labeled with PE was diluted 1:250 in PBS containing 3% BSA, and 200 μl of the diluted solution was mixed with the single celled sample and allowed to stand in a dark room at 4° C. for 1 hour. Then, each sample was washed with PBS (300 g, centrifuged for 5 minutes) and immediately analyzed with an Accuri C6 flow cytometer.
In order to further specify the mechanism of inducing revival stem cells, mouse-derived intestinal epithelial organoids were treated with a combination of various melatonin analogues and a specific agonist of the PGE2 receptor. […]

[2] = system: Mouse-derived small intestinal epithelial organoids; experiment: Microarray gene expression of revival stem cell markers in organoids; conditions: melatonin 500 μm, PGE2 100 nM, alone or in combination, 5 days
Protocol: as §1
The obtained mouse-derived small intestinal epithelial organoids were treated with melatonin (500 μm, 14427, Cayman) and PGE2 (prostaglandin E2, 100 nM; 14010, Cayman) alone or in combination for 5 days, and microarray was performed to track gene expression changes. RNA was extracted from the organoids using the RNeasy Kit (Qiagen), cDNA was synthesized using the GeneChip WT (Whole Transcript) Amplification kit, and analyzed using the Clariom™ S Affymetrix GeneChip Array (Affymetrix).

[3] = system: Human-derived intestinal epithelial organoids; experiment: Quantitative PCR of Clusterin (CLU) expression in organoids; conditions: same concentrations as in the mouse experiment, FIG. 3
Protocol: Human-derived intestinal epithelial organoids were treated with melatonin and its analogues and PGE2 to confirm whether revival stem cells were induced as observed in mouse intestinal organoids. In order to obtain intestinal epithelial organoids, donated human colon tissue was cut into a size of about 1 cm 2, placed in PBS containing gentamicin (10 μg/ml, Gibco), and allowed to stand at 4° C. for 30 minutes. Then, the tissue was taken out and the mucous layer was scraped off using forceps, and the process of shaking and washing in PBS was repeated 5 to 6 times, as in the case of mice. After washing, the tissue was put into 25 ml of Gentle cell dissociation reagent and reacted by shaking at 200 rpm for 20 minutes at 37° C. After vortexing at the maximum speed, the crypts were separated and cultured by washing in the same process as in mice. At this time, IntestiCult™ Organoid Growth Medium for Human (06010, stemcell technologies) was used as the culture medium. The obtained human intestinal epithelial organoids were treated alone or in combination with melatonin, 8M-PDOT, and PGE2 at the same concentrations as in the mouse experiment, and then the expression level of Clusterin (CLU) was compared through quantitative PCR. […]

Structure (SMILES) | revival stem cell induction (ratio of Ly6a-expressing cells) [1] | effect of receptor inhibitor on induction of revival stem cells [1] | Cldn4 expression FC (fold change) vs control [2] | Clu expression FC (fold change) vs control [2] | Ly6a expression FC (fold change) vs control [2] | further results
CCCC1([C@H](O)C/C=C/[C@H]2[C@H](O)CC(=O)[C@@H]2CCCCCCC(=O)OC)CCC1 [Butaprost] | did not show a specific induction effect | – | – | – | – | –
CCCCc1nn(-c2ccccc2C(F)(F)F)c(=O)n1Cc1ccc(-c2ccccc2S(=O)(=O)NC(=O)c2sccc2C)cc1 [L-161,982] | – | greatly suppressed | – | – | – | –
COc1ccc2[nH]cc(CCNC(C)=O)c2c1 [melatonin] | – | – | 1.0013 | 1.2252 | 1.1646 | –
COc1ccc2cc(OCC3(C(=O)O)CN(C(=O)c4ccc(F)cc4)C3)ccc2c1 [PF-04418948] | – | no effect | – | – | – | –
O=C1CC[C@H](/C=C/[C@@H](O)Cc2ccccc2)N1CCCCCCc1nn[nH]n1 [Cay10598] | induction effect similar to or higher than that of PGE2 | – | – | – | – | –
CCCCC[C@H](O)/C=C/[C@H]1[C@H](O)CC(=O)[C@@H]1C/C=C\CCCC(=O)O [PGE2, prostaglandin E2] | – | – | 1.9264 | 1.7590 | 9.7349 | CLU expression [3]: increased
